Measurements published in patent US10064417B2, “Milk filtration devices and methods for filtering” (Janssen Pharmaceutica NV, priority 2015, dated 2018).
Like-named read-outs stand apart in the source and are kept apart here.

Legend:
[1] = cited from earlier work
[2] = cited from earlier work; remark: listed apart in the source
[3] = cited from earlier work; remark: listed apart in the source
[4] = Fraction of ketamine in the neutral state at various pHs; type: physicochemical; settings: mother's milk, pH about 7.2-7.4, estimated from Table I
[5] = cited from earlier work; remark: listed apart in the source
[6] = tested on: orosomucoid; settings: human blood; cited from earlier work

Question: With `O=C(O)[C@@H]1CCCN1` [Proline] as the compound, how does the “Log P” value [1] read?
Answer: −2.6

Question: For `NCCCC[C@H](N)C(=O)O` [Lysine], which “Log P” value [1] is on record?
Answer: −3.2

Question: Which “Log P” value [1] does the source give for `Cc1cc2nc3c(=O)[nH]c(=O)nc-3n(C[C@H](O)[C@H](O)[C@H](O)CO)c2cc1C` [Riboflavin] here?
Answer: −0.92

Question: Which “Log P” value [1] does the source give for `NCCS(=O)(=O)O` [Taurine] here?
Answer: −1.9

Question: And the pKa [2]?
Answer: 9.0

Question: What about the pKa ([2]; room temperature) of the same compound?
Answer: about 9

Question: Which “Log P” value [1] does the source give for `N=C(N)NCCC[C@H](N)C(=O)O` [Arginine] here?
Answer: −1.7

Question: For `CNC1(c2ccccc2Cl)CCCCC1=O` (stereo not shown) [Ketamine], which “Fraction of neutral ketamine” value ([3]; pH 7.1) is on record?
Answer: 28.0%

Question: And the “Fraction of neutral ketamine” value ([3]; pH 7.4)?
Answer: 44.3%

Question: And the “Fraction of neutral ketamine” value ([3]; pH 7.5)?
Answer: 50.0%

Question: And the “neutral fraction of ketamine in milk” value [4]?
Answer: 30-40%

Question: Which “Log P” value [1] does the source give for `Cc1ncc(C[n+]2csc(CCO)c2C)c(N)n1` [Thiamine] here?
Answer: −3.1

Question: What about the “Log P” value ([1]; listed as thiamine) of the same compound?
Answer: ~−3

Question: With `CNCCC(Oc1ccc(C(F)(F)F)cc1)c1ccccc1` (stereo not shown) [fluoxetine, reference compound] as the compound, how does the pKa ([2]; room temperature) read?
Answer: about 10.3

Question: Which results are given for `CN[C@H]1CC[C@@H](c2ccc(Cl)c(Cl)c2)c2ccccc21` [Sertraline]?
Answer: bound in mother's milk [5]: about 80%; Log P [1]: 5.10; bound to orosomucoid [6]: 95%

Question: With `N[C@@H](Cc1c[nH]cn1)C(=O)O` [Histidine] as the compound, how does the pKa [2] read?
Answer: 9.1

Question: Which pKa [2] does the source give for `Cc1ncc(CO)c(CO)c1O` [Pyridoxine] here?
Answer: 8.7
